Values after ≈ are worked out from the molar mass of the structure shown. “Also recorded” adds a separate entry of the source. Where two headings read alike, the source gives them in different places. One block for each compound: values may come before it.
Key:
[1] = tested on: T cells compared to B cells; T-leukemic cells; conditions: cited from earlier work
[2] = Bioavailability of araG after oral administration to Cynomolgus monkeys (plasma, urine); format: in vivo; conditions: fasted Cynomolgus monkeys, individual animals; for Cmax: read-out: Plasma araG Peak Level
Protocol: AraG and compounds of the invention were administered orally to Cynomolgus monkeys which had been fasted for eight hours. Each compound was given to two monkeys. The dosage was 94 μmol/kg which is equivalent to 27 mg/kg araG. Blood samples were taken over the following 24 hours, and urine was collected over the same 24 hours. Concentrations of araG in plasma extracts and urine were determined by reverse phase HPLC.

[3] = Bioavailability after oral dosing in primates (statement); format: in vivo; conditions: in words
[4] = tested on: IM9 cells; assay: Inhibition of the growth of B cells (IM9); format: cell-based; conditions: Homo sapiens; for IC50: IM-9; for activity at 10 µM: IM-9, printed in parentheses beside IC50 >10 μM, read-out: % of Control growth
Protocol: (§1) The compounds of the invention were tested for inhibition of the growth of T cells (Molt 4) compared to B cells (IM9) by the method of Averett, D., Journal of Virological Methods, 23, (1989), 263-276.

[5] = Solubility in PBS at 25° C.; format: physicochemical; conditions: aqueous buffer, phosphate buffered saline
[6] = tested on: Molt 4 cells; assay: Inhibition of the growth of T cells (Molt 4); format: cell-based; conditions: Homo sapiens
Protocol: as §1

[7] = Water solubility (statement); format: physicochemical; conditions: in words
[8] = tested on: human T-cell line (Molt 4) in contrast to a human B-cell line (IM9); assay: Selective inhibition of T cell growth, Molt 4 compared to IM9; format: cell-based; conditions: Molt 4 vs IM9
Protocol: as §1

Plasma araG AUC 0.7 hrs ([2]; 94 μmol/kg, plasma, 420 min): 21.1 µM·h | Cmax ([2]; 94 μmol/kg, plasma): 4.6 µM | Urine % Recovered as araG ([2]; 94 μmol/kg, urine over 24 hours, 1440 min): 4.2% | AUC(0-t) at 7 h ([2]; cynomolgus monkey, plasma, po, 94 umol/kg, plasma, read-out: Plasma araG AUC 0.7 hrs): 20.8 µM·h | Cmax ([2]; cynomolgus monkey, plasma, po, 94 umol/kg, plasma): 6 µM | dose excreted at 24 h ([2]; cynomolgus monkey, urine, po, 94 umol/kg, urine over 24 hours, read-out: Urine % Recovered as araG): 3.9% | solubility [5]: 4 mM (≈ 1.13 mg/mL) | IC50 [6]: 1400 ± 80 nM | water solubility [7]: limited water solubility
Structure (SMILES): Nc1nc2c(ncn2[C@@H]2O[C@H](CO)[C@@H](O)[C@@H]2O)c(=O)[nH]1 [araG, arabinofuranosyl guanine]
selective inhibition of growth of T cells / selective cytotoxic activity for T-leukemic cells [1]: selectively inhibits the growth of T cells compared to B cells; also recorded: selective cytotoxic activity for T-leukemic cells | oral bioavailability [3]: low bioavailability after oral dosing in primates | IC50 [4]: > 10000 nM | activity at 10 µM [4]: 84%

solubility [5]: 92 mM (≈ 31.2 mg/mL)
Structure (SMILES): COc1nc(N)nc2c1ncn2[C@@H]1O[C@H](COC(C)=O)[C@@H](O)[C@@H]1O [Example 1b, 9-(5-O-Acetyl-β-D-arabinofuranosyl)-2-amino-6-methoxy-9H-purine]

solubility [5]: 38 mM (≈ 14.5 mg/mL)
Structure (SMILES): COc1nc(N)nc2c1ncn2[C@@H]1O[C@H](COC(C)=O)[C@@H](OC(C)=O)[C@@H]1O [Example 2j, 9-(3,5-di-O-Acetyl-β-D-arabinofuranosyl)-2-amino-6-methoxy-9H-purine]

IC50 [6]: 800 ± 100 nM
Structure (SMILES): COc1nc(N)nc2c1ncn2[C@@H]1O[C@H](CO)[C@@H](O)[C@@H]1O [compound 1, 2-Amino-6-methoxy-9-(β-D-arabinofuranosyl)-9H-purine]
selective inhibition of growth of T-cell line vs B-cell line [8]: selectively inhibits the growth of a human T-cell line (Molt 4) in contrast to a human B-cell line (IM9) | IC50 [4]: > 10000 nM | activity at 10 µM [4]: 85%

— US5747472A, “Therapeutic methods for using ARA-G derivatives” (Glaxo Wellcome Inc., priority 1990, dated 1998)
